# Values joined by “and” are separate entries in the source; they are usually repeats but may differ in a detail not shown here. Identical values can stand only once.
# How the values were obtained:
# GyrA (wt) + GyrB (wt) = target: T1, GyrA (wt) + GyrB (wt) (Staphylococcus aureus, UniProt P20831); experiment: DNA cleavage assay using DNA gyrase; format: biochemical; details: for Ratio of cleaved DNA (%) / Ratio of substrate plasmid DNA (%): GyrA (wt) + GyrB (wt)
# T1 construct: made in house; host or cells: E. coli BL21(DE3)
# Description: (§1) To the culture medium of the resulting transformed Escherichia coli 1 mM isopropyl-8-thiogalactopyranoside (produced by Wako Pure Chemical Industries) was added to induce expression of maltose-binding GyrA(wt), maltose-binding GyrB(wt), or maltose-binding mutant GyrA(S84L), and the bacterium was cultured overnight at 25° C.
# Then, each disrupted cell suspension was added to a column filled with an amylose resin covalently bound with maltose (produced by Novagen). A buffer (20 mM Tris-HCl (pH 8.0), 200 mM sodium chloride, 1 mM EDTA) containing 10 mM maltose was added to the column to elute the maltose-binding GyrA(wt), maltose-binding GyrB(wt), and maltose-binding mutant GyrA(S84L).
# To each eluate, 4 units/1 mL of the eluate of protease (Factor Xa, produced by Amersham) was added, and the mixture was left standing at 25° C. for 3 hours and 30 minutes to cleave the maltose-binding proteins, GyrA(wt), GyrB(wt), and mutant GyrA(S84L), from the maltose-binding GyrA(wt), maltose-binding GyrB(wt), and maltose-binding mutant GyrA(S84L).
# Then, GyrA(wt), GyrB(wt), and mutant GyrA(S84L) were concentrated by using an ultrafiltration unit (YM-50 Filter Unit, produced by Millipore).
# The concentrated GyrA(wt), GyrB(wt), and mutant GyrA(S84L) were each suspended in a buffer (35 mM Tris-HCl (pH 7.5), 24 mM potassium chloride, 6 mM magnesium chloride, 1.8 mM spermidine, 0.36 mg/mL bovine serum albumin, 5 mM DTT, 50 volume % glycerol) at a concentration of 1 μg/μL for GyrA(wt), 2 μg/μL for GyrB(wt), or 1 μg/μL for mutant GyrA(S84L).
# Levofloxacin was added at a final concentration of […] as control for an index of the enzymatic activity.
# The reaction solution was left standing at 25° C. for 30 minutes to allow the reaction. Subsequently, a 6 mass % solution of sodium laurylsulfate (2 μL) and a 5 mg/mL solution of Proteinase K (2 μL, produced by Wako Pure Chemical Industries) were added to the reaction solution, and the mixture was left standing at 37° C. for 30 minutes to inactivate GyrA(wt) and GyrB(wt) bound to DNA.
# Then, the whole volume of the reaction solution treated with Proteinase K was subjected to electrophoresis on 1 mass % agarose gel to visualize the resultants of the reaction.
# (§2) Then, the total value of the intensities of the bands of “S”, “L”, and “N” was calculated for each concentration, and the result was used as “total DNA amount” (equation 1 mentioned below). Further, the total value of the intensities of the bands of “L” and “N” was also calculated, and the result was used as “amount of cleaved DNA” (equation 2 mentioned below). Then, the ratio (%) of the amount of the substrate plasmid DNA to the total DNA amount was calculated in accordance with the following equation 3, and the ratio (%) of the amount of the cleaved DNA to the total DNA amount was calculated in accordance with the following equation 4.
# The DNA cleavage assay is a method for evaluating an inhibitory action of an agent for DNA gyrase by detecting whether or not DNAs cleaved by DNA gyrase are recombined.
# [1] = system: E. coli strain 1709 plus PABN; experiment: Antibacterial activity against Escherichia coli in combination with efflux pump inhibitor PAβN; details: E coli plus PABN 40 mg/L, strain 1709, Quinolone Sus
# Description: (§3) The numerical values in the tables indicate MIC (mg/L), Res means resistant bacterium, and Sus means susceptible bacterium.
# (§4) Antibacterial activities against Escherichia coli of the compounds shown Table 19 were examined by the following method.
# (§5) After completion of the culture, the cells were suspended in fresh TBS to prepare a cell suspension showing an absorbance of 0.3 at 578 nm.
# E. coli strain 1709 = experiment: Antibacterial activity against Escherichia coli
# Description: as §3, §4, §5
# [2] = system: E. coli strain 1708 plus PABN; experiment: Antibacterial activity against Escherichia coli in combination with efflux pump inhibitor PAβN; details: E coli plus PABN 40 mg/L, strain 1708, Quinolone Res
# Description: as §3, §4, §5
# E. coli strain 1708 = experiment: Antibacterial activity against Escherichia coli
# Description: as §3, §4, §5
# GyrA (S84L) + GyrB (wt) = target: T2, GyrA (S84L) + GyrB (wt) (Staphylococcus aureus, UniProt P20831, S84L); experiment: DNA cleavage assay using DNA gyrase; format: biochemical
# T2 construct: made in house; host or cells: E. coli BL21(DE3)
# Description: as §1
# Then, each disrupted cell suspension was added to a column filled with an amylose resin covalently bound with maltose (produced by Novagen). A buffer (20 mM Tris-HCl (pH 8.0), 200 mM sodium chloride, 1 mM EDTA) containing 10 mM maltose was added to the column to elute the maltose-binding GyrA(wt), maltose-binding GyrB(wt), and maltose-binding mutant GyrA(S84L). […]
# as §2
structure (smiles),measurement,setting,value
"O=c1cc(CO)c2cc(F)c(-c3ccc(O)cc3)cc2n1C1CC1 [J-131CP, 1-cyclopropyl-6-fluoro-4-(hydroxymethyl)-7-(4-hydroxyphenyl)-1,2-dihydroquinolin-2-one]",Ratio of cleaved DNA (%),GyrA (wt) + GyrB (wt); concentration 0.125 μg/mL,12%
same,Ratio of substrate plasmid DNA (%),GyrA (wt) + GyrB (wt); concentration 0.125 μg/mL,88%
same,Ratio of cleaved DNA (%),GyrA (wt) + GyrB (wt); concentration 0.25 μg/mL,19%
same,Ratio of substrate plasmid DNA (%),GyrA (wt) + GyrB (wt); concentration 0.25 μg/mL,81%
same,Ratio of cleaved DNA (%),GyrA (wt) + GyrB (wt); concentration 0.5 μg/mL,23%
same,Ratio of substrate plasmid DNA (%),GyrA (wt) + GyrB (wt); concentration 0.5 μg/mL,77%
same,Ratio of cleaved DNA (%),GyrA (wt) + GyrB (wt); concentration 1 μg/mL,47%
same,Ratio of substrate plasmid DNA (%),GyrA (wt) + GyrB (wt); concentration 1 μg/mL,53%
same,Ratio of cleaved DNA (%),GyrA (wt) + GyrB (wt); concentration 2 μg/mL,77%
same,Ratio of substrate plasmid DNA (%),GyrA (wt) + GyrB (wt); concentration 2 μg/mL,23%
same,Ratio of cleaved DNA (%),GyrA (wt) + GyrB (wt); concentration 4 μg/mL,81%
same,Ratio of substrate plasmid DNA (%),GyrA (wt) + GyrB (wt); concentration 4 μg/mL,19%
same,IC50,"GyrA (wt) + GyrB (wt); IC50, GyrA(wt) and GyrB(wt)",6.15 µM and 6.2 µM
same,MIC,[1],≦0.06 mg/L
same,MIC,E. coli strain 1709,8 µg/mL
same,MIC,[2],0.25 µg/mL
same,MIC,E. coli strain 1708,128 µg/mL
same,IC50,"GyrA (S84L) + GyrB (wt); IC50, GyrA (S84L) + GyrB (wt), calculated from the ratio of cleaved DNA",3.07 µM
same,IC50,"GyrA (S84L) + GyrB (wt); IC50, GyrA(S84L) and GyrB(wt)",3.1 µM
"C[C@H]1COc2c(N3CCN(C)CC3)c(F)cc3c(=O)c(C(=O)O)cn1c23 [LVX, levofloxacin]",Ratio of cleaved DNA (%),GyrA (wt) + GyrB (wt); concentration 16 μg/mL,78%
same,Ratio of substrate plasmid DNA (%),GyrA (wt) + GyrB (wt); concentration 16 μg/mL,22%
